Results: BindingDB's records for PubMed 1325033 (Universit&Acute, 1992)
Values joined by “and” are separate entries in the source; they are usually repeats but may differ in a detail not shown here. Identical values can stand only once. Peptide text beside a SMILES is read from it.

Molecular target: T1, Pituitary adenylate cyclase-activating polypeptide (Rattus norvegicus, UniProt P13589)
T1 sequence (P13589 whole entry): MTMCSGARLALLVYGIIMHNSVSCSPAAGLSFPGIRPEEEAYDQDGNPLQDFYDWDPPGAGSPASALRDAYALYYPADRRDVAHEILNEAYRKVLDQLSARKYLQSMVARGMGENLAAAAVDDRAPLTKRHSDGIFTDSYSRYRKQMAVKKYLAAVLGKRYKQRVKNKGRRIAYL

| Compound | Ki |
| --- | --- |
| H-TDSYSRYRKQMAVKKYLAAVLGKRYKQRVKNK-NH2 [PACAP(7-38)] | 25 nM and 150 nM |
| H-TDSYSRYRKQMAVKKYLAAVL-NH2 [PACAP(6-27)] | 4000 nM and > 10000 nM |
| CCC(C)[C@H](NC(=O)CNC(=O)[C@H](CC(=O)O)NC(=O)[C@@H](Cc1ccccc1)NC(=O)[C@@H](N)Cc1cnc[nH]1)C(=O)N[C@@H](Cc1ccccc1)C(=O)N[C@H](C(=O)N[C@@H](CC(=O)O)C(=O)N[C@@H](CO)C(=O)N[C@@H](Cc1ccc(O)cc1)C(=O)N[C@@H](CO)C(=O)N[C@@H](CCCN=C(N)N)C(=O)N[C@@H](Cc1ccc(O)cc1)C(=O)N[C@@H](CCCN=C(N)N)C(=O)N[C@@H](CCCCN)C(=O)N[C@@H](CCC(N)=O)C(=O)N[C@@H](CCSC)C(=O)N[C@@H](C)C(=O)N[C@H](C(=O)N[C@@H](CCCCN)C(=O)N[C@@H](CCCCN)C(=O)N[C@@H](Cc1ccc(O)cc1)C(=O)N[C@@H](CC(C)C)C(=O)N[C@@H](C)C(=O)N[C@@H](C)C(=O)N[C@H](C(=O)N[C@@H](CC(C)C)C(=O)NCC(=O)N[C@@H](CCCCN)C(=O)N[C@@H](CCCN=C(N)N)C(=O)N[C@@H](Cc1ccc(O)cc1)C(=O)N[C@@H](CCCCN)C(=O)N[C@@H](CCC(N)=O)C(=O)N[C@@H](CCCN=C(N)N)C(=O)N[C@H](C(=O)N[C@@H](CCCCN)C(=O)N[C@@H](CC(N)=O)C(=O)N[C@@H](CCCCN)C(N)=O)C(C)C)C(C)C)C(C)C)[C@@H](C)O (stereo partly drawn) [[D-Phe2]PACAP-38] (HELM PEPTIDE1{H.[dF].D.G.[CCC(C)[C@H](N[*:1])C(=O)[*:2]].F.T.D.S.Y.S.R.Y.R.K.Q.M.A.V.K.K.Y.L.A.A.V.L.G.K.R.Y.K.Q.R.V.K.N.K.[am]}$$$$V2.0) | 5 nM and 40 nM |
| CCC(C)[C@H](NC(=O)CN)C(=O)N[C@@H](Cc1ccccc1)C(=O)N[C@H](C(=O)N[C@@H](CC(=O)O)C(=O)N[C@@H](CO)C(=O)N[C@@H](Cc1ccc(O)cc1)C(=O)N[C@@H](CO)C(=O)N[C@@H](CCCN=C(N)N)C(=O)N[C@@H](Cc1ccc(O)cc1)C(=O)N[C@@H](CCCN=C(N)N)C(=O)N[C@@H](CCCCN)C(=O)N[C@@H](CCC(N)=O)C(=O)N[C@@H](CCSC)C(=O)N[C@@H](C)C(=O)N[C@H](C(=O)N[C@@H](CCCCN)C(=O)N[C@@H](CCCCN)C(=O)N[C@@H](Cc1ccc(O)cc1)C(=O)N[C@@H](CC(C)C)C(=O)N[C@@H](C)C(=O)N[C@@H](C)C(=O)N[C@H](C(=O)N[C@@H](CC(C)C)C(=O)NCC(=O)N[C@@H](CCCCN)C(=O)N[C@@H](CCCN=C(N)N)C(=O)N[C@@H](Cc1ccc(O)cc1)C(=O)N[C@@H](CCCCN)C(=O)N[C@@H](CCC(N)=O)C(=O)N[C@@H](CCCN=C(N)N)C(=O)N[C@H](C(=O)N[C@@H](CCCCN)C(=O)N[C@@H](CC(N)=O)C(=O)N[C@@H](CCCCN)C(N)=O)C(C)C)C(C)C)C(C)C)[C@@H](C)O (some centres not stated) [PACAP(4-38)] (HELM PEPTIDE1{G.[CCC(C)[C@H](N[*:1])C(=O)[*:2]].F.T.D.S.Y.S.R.Y.R.K.Q.M.A.V.K.K.Y.L.A.A.V.L.G.K.R.Y.K.Q.R.V.K.N.K.[am]}$$$$V2.0) | 300 nM |
| H-SNGIFTDSYSRYRKQMAVKKYLAAVL-NH2 [[Des-His1,Asn3]PACAP-27] | 1500 nM and 5000 nM |
| CCC(C)[C@H](NC(=O)CNC(=O)[C@H](CC(=O)O)NC(=O)[C@@H](Cc1ccccc1)NC(=O)[C@@H](N)Cc1cnc[nH]1)C(=O)N[C@@H](Cc1ccccc1)C(=O)N[C@H](C(=O)N[C@@H](CC(=O)O)C(=O)N[C@@H](CO)C(=O)N[C@@H](Cc1ccc(O)cc1)C(=O)N[C@@H](CO)C(=O)N[C@@H](CCCN=C(N)N)C(=O)N[C@@H](Cc1ccc(O)cc1)C(=O)N[C@@H](CCCN=C(N)N)C(=O)N[C@@H](CCCCN)C(=O)N[C@@H](CCC(N)=O)C(=O)N[C@@H](CCSC)C(=O)N[C@@H](C)C(=O)N[C@H](C(=O)N[C@@H](CCCCN)C(=O)N[C@@H](CCCCN)C(=O)N[C@@H](Cc1ccc(O)cc1)C(=O)N[C@@H](CC(C)C)C(=O)N[C@@H](C)C(=O)N[C@@H](C)C(=O)N[C@H](C(=O)N[C@@H](CC(C)C)C(N)=O)C(C)C)C(C)C)[C@@H](C)O (stereo partly drawn) [[D-Phe2]PACAP-27] | 350 nM and 1000 nM |
| H-FTDSYSRYRKQMAVKKYLAAVL-NH2 [PACAP(5-27)] | 300 nM and 2000 nM |
